# Measured values from US8241681B2, “Synergistic mixtures of bisabolol and ginger extract” (Symrise AG, priority 2005, dated 2012).
# Test system: erythema raised by 24-hour occlusive treatment with SDS (sodium dodecyl sulfate), inside under-arm skin
# Test: SDS inflammation test (SDS irritation study), reduction in reddening of the skin
# Assay type: in vivo, human
# Conditions: after 3 days
# Method: The SDS inflammation test was used as the test model. The study was conducted on the inside under-arm of 20 subjects (9 female, 11 male, age: 24-62 years). The reddening of the skin was recorded with a Minolta-Chromameter CR 300 via the a* value of the La′b′ colour system, which describes the position on the red-green axis. The measurements were taken before and 4-6 hours after raising the erythema by 24-hour occlusive treatment with SDS (sodium dodecyl sulfate). The skin was then treated with the test formulation in question 2 times daily for 3 days. 4-6 h after the last application on day 3, the reddening of the skin was determined and the reduction in reddening was calculated from this.
# For the study, a defined amount of the active compound combination C according to the invention was incorporated into an O/W emulsion. For comparison purposes, the comparison active compounds A and B were incorporated into separate O/W emulsions.
# Extrapon Ginger (Symrise) comprising 1% of ginger CO2 extract, characterized by 25-33% in total of piquant substances with gingerols, shogaols (<3%) and zingerone (<0.5%) and 38-46% of steam-volatile constituents was employed as comparison active compound A.
# Calculation of the synergy index (SI) value according to Kull for the reduction in reddening in the SDS inflammation test for a mixture of bisabolol and ginger extract after a treatment time of 3 days: […]
structure (smiles),measurement,setting,value
"CC(C)=CCC[C@](C)(O)[C@@H]1CC=C(C)CC1 [Formulation with active compound B, -(-Alpha-)-Bisabolol, natural]",Reduction in reddening relative to the start conditions (a* value),"O/W emulsion applied 2 times daily, 20 subjects, Minolta-Chromameter CR 300, Example 11",2.42
same,Placebo-corrected reduction in reddening (a* value),"reduction in reddening active compound minus reduction in reddening placebo, Example 11",1.02
